Laboratory results: PMC7712541, “Seven New Cytotoxic and Antimicrobial Xanthoquinodins from Jugulospora vestita” (Journal of Fungi, 2020)
Converted amounts (≈) assume the structure as drawn.

How the values were obtained:
Cytotoxicity, MTT method = assay: Cytotoxicity, MTT method
Protocol: (§1) Compounds were tested for their antimicrobial activity against […] fungi (Candida albicans, Mucor hiemails, Pichia anomala, Rhodotorula glutinis and Schizosaccharomyces pombe), four different Gram-positive bacteria (Bacillus subtilis, Micrococcus luteus, Mycobacterium smegmatis and Staphylococcus aureus), and three Gram-negative bacteria (Chromobacterium violaceum, Escherichia coli and Pseudomonas aeruginosa), using oxytetracycline as a positive control against Gram-positive and Gram-negative bacteria, while nystatin was used as an antifungal positive control. Besides, cytotoxicities of the compounds against seven mammalian cell lines (human endocervical adenocarcinoma KB 3.1, breast cancer MCF-7, lung cancer A549, ovary cancer SK-OV-3, prostate cancer PC-3, squamous cancer A431, and mouse fibroblasts L929) were determined by the microculture tetrazolium test (MTT) method, using epothilon B as the positive control. Both bioactivity assays were performed following our standard protocols.

NCI-H187 and Vero = system: NCI-H187 and Vero; design: method as in PMID 29677644; conditions: cited from earlier work
[1] = system: Al. brassicicola, Co. gloeosporioides, Co. truncatum, Cu. lunata and Py. grisea; design: method as in PMID 29677644; conditions: cited from earlier work
Mycobacterium smegmatis = assay: MIC, antibacterial test; assay type: cell-based; design: key: –: no inhibition observed under test conditions
Protocol: as §1

Candida albicans = assay: MIC, antifungal test; assay type: cell-based; design: key to Minimum inhibitory concentration (MIC): –: no inhibition observed under test conditions
Protocol: as §1

Pichia anomala = assay: MIC, antifungal test; assay type: cell-based; design: key to Minimum inhibitory concentration (MIC): –: no inhibition observed under test conditions
Protocol: as §1

Mucor hiemalis = assay: MIC, antifungal test; assay type: cell-based; design: key to Minimum inhibitory concentration (MIC): –: no inhibition observed under test conditions
Protocol: as §1

Rhodotorula glutinis = assay: MIC, antifungal test; assay type: cell-based; design: key to Minimum inhibitory concentration (MIC): –: no inhibition observed under test conditions
Protocol: as §1

[2] = system: Schizosaccharomyces pombe; assay: MIC, antifungal test; assay type: cell-based; design: key to Minimum inhibitory concentration (MIC): –: no inhibition observed under test conditions
Protocol: as §1

[3] = system: Chromobacterium violaceum; assay: MIC, antibacterial test; assay type: cell-based; design: key to Minimum inhibitory concentration (MIC): –: no inhibition observed under test conditions; conditions: read-out: Minimum inhibitory concentration (MIC)
Protocol: as §1

Pseudomonas aeruginosa = assay: MIC, antibacterial test; assay type: cell-based; design: key to Minimum inhibitory concentration (MIC): –: no inhibition observed under test conditions
Protocol: as §1

Escherichia coli = assay: MIC, antibacterial test; assay type: cell-based; design: key to Minimum inhibitory concentration (MIC): –: no inhibition observed under test conditions
Protocol: as §1

[4] = system: KB 3.1, L929, A549, SK-OV-3, PC-3, A431, and MCF-7 mammalian cell lines; assay: Cytotoxicity, summary over all tested cell lines; assay type: cell-based; conditions: seven mammalian cell lines; read-out: IC50 values, range over all tested cell lines
Protocol: as §1

Micrococcus luteus = assay: MIC, antibacterial test; assay type: cell-based; conditions: read-out: Minimum inhibitory concentration (MIC)
Protocol: as §1

Staphylococcus aureus = assay: MIC, antibacterial test; assay type: cell-based; conditions: read-out: Minimum inhibitory concentration (MIC)
Protocol: as §1

Bacillus subtilis = assay: MIC, antibacterial test; assay type: cell-based; conditions: read-out: Minimum inhibitory concentration (MIC)
Protocol: as §1

[5] = system: MCF-7 human breast cancer cells; assay: Cytotoxicity, MTT method; conditions: read-out: Cytotoxicity, half maximal inhibitory concentration (IC50); MCF-7, MTT
Protocol: as §1

mouse fibroblasts L929 = assay: Cytotoxicity, MTT method; conditions: read-out: Cytotoxicity, half maximal inhibitory concentration (IC50); L929, MTT
Protocol: as §1

[6] = system: human endocervical adenocarcinoma KB 3.1; assay: Cytotoxicity, MTT method; conditions: read-out: Cytotoxicity, half maximal inhibitory concentration (IC50); KB 3.1, MTT
Protocol: as §1

lung cancer A549 = assay: Cytotoxicity, MTT method; conditions: read-out: Cytotoxicity, half maximal inhibitory concentration (IC50); A549, MTT
Protocol: as §1

[7] = system: A431 human squamous cancer cells; assay: Cytotoxicity, MTT method; conditions: read-out: Cytotoxicity, half maximal inhibitory concentration (IC50); A431, MTT
Protocol: as §1

prostate cancer PC-3 = assay: Cytotoxicity, MTT method; conditions: read-out: Cytotoxicity, half maximal inhibitory concentration (IC50); PC-3, MTT
Protocol: as §1

ovary cancer SK-OV-3 = assay: Cytotoxicity, MTT method; conditions: read-out: Cytotoxicity, half maximal inhibitory concentration (IC50); SK-OV-3, MTT
Protocol: as §1

[8] = system: PC-3 prostate cancer cells; design: method as in PMID 31433962; conditions: cited from earlier work

## COC(=O)[C@]12Oc3c(c(O)cc4c3[C@@H]3C=C[C@]5(C4)C(=C(O)c4c(O)cc(C)cc4[C@@H]5O)C3=O)C(=O)C1=C(O)CC[C@@H]2O [Compound 8, Xanthoquinodin B4]
Cytotoxicity, MTT method; human, A431 squamous cancer cells
  IC50: 160 nM
Cytotoxicity, MTT method; human, A549 lung cancer cells
  IC50: 1220 nM
Cytotoxicity, MTT method; human, KB 3.1 endocervical adenocarcinoma cells
  IC50: 1060 nM
Cytotoxicity, MTT method; human, MCF-7 breast cancer cells
  IC50: 100 nM
Cytotoxicity, MTT method; human, PC-3 prostate cancer cells
  IC50: 3140 nM
Cytotoxicity, MTT method; human, SK-OV-3 ovary cancer cells
  IC50: 470 nM
Cytotoxicity, MTT method; mouse, L929 fibroblasts
  IC50: 4700 nM
NCI-H187 and Vero
  Cytotoxicity compared with other xanthoquinodins (in words): stronger cytotoxicity
[1]
  Antifungal effects (in words): significant antifungal effects
Mycobacterium smegmatis
  Minimum inhibitory concentration (MIC): –
Candida albicans
  Minimum inhibitory concentration (MIC): –
Pichia anomala
  Minimum inhibitory concentration (MIC): –
Mucor hiemalis
  Minimum inhibitory concentration (MIC): –
Rhodotorula glutinis
  Minimum inhibitory concentration (MIC): –
[2]
  Minimum inhibitory concentration (MIC): –
[3]
  MIC: 66.7 µg/mL (≈ 116 µM)
Pseudomonas aeruginosa
  Minimum inhibitory concentration (MIC): –
Escherichia coli
  Minimum inhibitory concentration (MIC): –
[4]
  IC50: 100 to 4700 nM
Micrococcus luteus
  MIC: 8.3 µg/mL (≈ 14.4 µM)
Staphylococcus aureus
  MIC: 8.3 µg/mL (≈ 14.4 µM)
Bacillus subtilis
  MIC: 2.1 µg/mL (≈ 3.66 µM)

## C/C(=C\c1csc(C)n1)[C@@H]1C[C@@H]2O[C@]2(C)CCC[C@H](C)[C@H](O)[C@@H](C)C(=O)C(C)(C)[C@@H](O)CC(=O)O1 [epothilon B, reference compound]
[5]
  IC50: 0.03 nM
Mouse fibroblasts L929
  IC50: 0.51 nM
[6]
  IC50: 0.03 nM
Lung cancer A549
  IC50: 0.09 nM
[7]
  IC50: 0.05 nM
Prostate cancer PC-3
  IC50: 0.07 nM
Ovary cancer SK-OV-3
  IC50: 0.09 nM

## xanthoquinodin JBIR-99
[8]
  Antiproliferative activity (in words): high selective antiproliferative activity
